From PubChem BioAssay (NCI)
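Values below derive from 48-hour exposures of cells grown in 96-well plates, with endpoints linearly interpolated between the two concentrations bracketing the appropriate inhibition level. TGI is the concentration that stops growth completely.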

Experiments:
Assay in all cases: NCI-60 cell line screen, 48 h
[1] = test system: 786-0 renal
[2] = test system: A498 renal
[3] = test system: A549 NSCLC
[4] = test system: ACHN renal
[5] = test system: CAKI-1 renal
[6] = test system: CCRF-CEM leukemia
[7] = test system: COLO 205 colon
[8] = test system: DLD-1 colon
[9] = test system: DMS 114 small cell lung
[10] = test system: DMS 273 small cell lung
[11] = test system: EKVX NSCLC
[12] = test system: HCC-2998 colon
[13] = test system: HCT-116 colon
[14] = test system: HCT-15 colon
[15] = test system: HOP-62 NSCLC
[16] = test system: HOP-92 NSCLC
[17] = test system: HT29 colon
[18] = test system: IGROV1 ovarian
[19] = test system: K-562 leukemia
[20] = test system: KM12 colon
[21] = test system: KM20L2 colon
[22] = test system: LXFL 529 NSCLC
[23] = test system: M14 melanoma
[24] = test system: M19-MEL melanoma
[25] = test system: MALME-3M melanoma
[26] = test system: MOLT-4 leukemia
[27] = test system: NCI-H226 lung
[28] = test system: NCI-H23 lung
[29] = test system: NCI-H522 lung
[30] = test system: OVCAR-3 ovarian
[31] = test system: OVCAR-4 ovarian
[32] = test system: OVCAR-5 ovarian
[33] = test system: OVCAR-8 ovarian
[34] = test system: RPMI-8226 leukemia
[35] = test system: RXF-631 renal
[36] = test system: SF-268 CNS
[37] = test system: SF-539 CNS
[38] = test system: SK-MEL-2 melanoma
[39] = test system: SK-MEL-28 melanoma
[40] = test system: SK-MEL-5 melanoma
[41] = test system: SK-OV-3 ovarian
[42] = test system: SN12C renal
[43] = test system: SNB-19 CNS
[44] = test system: SNB-75 CNS
[45] = test system: SNB-78 CNS
[46] = test system: SR leukemia
[47] = test system: SW-620 colon
[48] = test system: U251 CNS
[49] = test system: UACC-257 melanoma
[50] = test system: UACC-62 melanoma
[51] = test system: UO-31 renal
[52] = test system: XF 498 CNS
[53] = test system: HL-60(TB) leukemia
[54] = test system: LOX IMVI melanoma
[55] = test system: NCI-H460 lung
[56] = test system: RXF 393 renal
[57] = test system: SF-295 CNS
[58] = test system: TK-10 renal

COc1ccc(/C=C\c2cc(OC)c(OC(C)=O)c(OC)c2)cc1
TGI [1]: > 100 µM | TGI [2]: 45 µM | TGI [3]: 78 µM | TGI [4]: > 100 µM | TGI [5]: > 100 µM | TGI [6]: 57.3 µM | TGI [7]: > 100 µM | TGI [8]: > 100 µM | TGI [9]: 61.7 µM | TGI [10]: > 100 µM | TGI [11]: > 100 µM | TGI [12]: 36.7 µM | TGI [13]: > 100 µM | TGI [14]: 97 µM | TGI [15]: 85.6 µM | TGI [16]: 68.3 µM | TGI [17]: 47.9 µM | TGI [18]: > 100 µM | TGI [19]: 31 µM | TGI [20]: 61.2 µM | TGI [21]: > 100 µM | TGI [22]: > 100 µM | TGI [23]: 92.2 µM | TGI [24]: > 100 µM | TGI [25]: 91.1 µM | TGI [26]: 38.6 µM | TGI [27]: > 100 µM | TGI [28]: 63.4 µM | TGI [29]: 39.7 µM | TGI [30]: > 100 µM | TGI [31]: > 100 µM | TGI [32]: 88.8 µM | TGI [33]: 76.7 µM | TGI [34]: 85.7 µM | TGI [35]: > 100 µM | TGI [36]: > 100 µM | TGI [37]: 14.9 µM | TGI [38]: 58.8 µM | TGI [39]: 26.2 µM | TGI [40]: 20.5 µM | TGI [41]: > 100 µM | TGI [42]: 30.8 µM | TGI [43]: > 100 µM | TGI [44]: 15 µM | TGI [45]: 73.9 µM | TGI [46]: 98.2 µM | TGI [47]: > 100 µM | TGI [48]: 23.1 µM | TGI [49]: 95.1 µM | TGI [50]: 33.5 µM | TGI [51]: 50.1 µM | TGI [52]: > 100 µM

CCN(CC)[C@@H]1c2cc3c(cc2C(c2cc(OC)c(O)c(OC)c2)C2C(=O)CO[C@@H]21)OCO3 (some centres not stated)
TGI [1]: > 100 µM | TGI [2]: > 100 µM | TGI [3]: > 100 µM | TGI [4]: > 100 µM | TGI [5]: > 100 µM | TGI [6]: > 100 µM | TGI [7]: > 100 µM | TGI [8]: > 100 µM | TGI [9]: > 100 µM | TGI [10]: > 100 µM | TGI [11]: > 100 µM | TGI [12]: > 100 µM | TGI [13]: > 100 µM | TGI [14]: > 100 µM | TGI [53]: > 100 µM | TGI [15]: > 100 µM | TGI [16]: > 100 µM | TGI [17]: > 100 µM | TGI [18]: > 100 µM | TGI [19]: > 100 µM | TGI [20]: > 100 µM | TGI [21]: > 100 µM | TGI [54]: > 100 µM | TGI [22]: > 100 µM | TGI [23]: > 100 µM | TGI [24]: > 100 µM | TGI [25]: > 100 µM | TGI [26]: > 100 µM | TGI [27]: > 100 µM | TGI [28]: > 100 µM | TGI [55]: > 100 µM | TGI [29]: > 100 µM | TGI [31]: > 100 µM | TGI [32]: > 100 µM | TGI [33]: > 100 µM | TGI [34]: > 100 µM | TGI [56]: > 100 µM | TGI [35]: > 100 µM | TGI [36]: > 100 µM | TGI [57]: > 100 µM | TGI [37]: > 100 µM | TGI [38]: > 100 µM | TGI [39]: > 100 µM | TGI [40]: > 100 µM | TGI [41]: > 100 µM | TGI [42]: > 100 µM | TGI [44]: > 100 µM | TGI [46]: > 100 µM | TGI [47]: > 100 µM | TGI [58]: > 100 µM | TGI [48]: > 100 µM | TGI [49]: > 100 µM | TGI [50]: > 100 µM | TGI [51]: > 100 µM | TGI [52]: > 100 µM
